Laboratory results from US4681872A (priority 1985, dated 1987).
In brackets after ≈: the same amount, converted by molar mass. Like-named read-outs stand apart in the source and are kept apart here.

Key:
Bact. fragilis UC-2 [1] = experiment: microbe, parasite or virus in culture; settings: Bacteroides fragilis, UC2
[2] = system: Pseudomonas aeruginosa BMH10; experiment: antimicrobial spectrum, agar dilution MIC; settings: BHI agar, 35°-37° C., 20-24 hours
Micrococcus luteus 4698 = experiment: antimicrobial spectrum, agar dilution MIC; settings: BHI agar, 35°-37° C., 20-24 hours
Pseudomonas cepacia 2961 = experiment: antimicrobial spectrum, agar dilution MIC; settings: BHI agar, 35°-37° C., 20-24 hours
[3] = beagle dogs, oral, 10.0 mg/kg, buffered solution of the lactobionate salt in water; in comparison to erythromycin A
Bact. fragilis UC-2 [4] = settings: BHI agar, 35°-37° C., 20-24 hours
Micrococcus luteus 9341 = experiment: antimicrobial spectrum, agar dilution MIC; settings: BHI agar, 35°-37° C., 20-24 hours
Strep. pyogenes 930 = experiment: antimicrobial spectrum, agar dilution MIC; settings: BHI agar, 35°-37° C., 20-24 hours
E. coli SS = experiment: antimicrobial spectrum, agar dilution MIC; settings: BHI agar, 35°-37° C., 20-24 hours
Bact. fragilis 784 = settings: BHI agar, 35°-37° C., 20-24 hours
[5] = system: Providencia stuartii CMX 640; experiment: antimicrobial spectrum, agar dilution MIC; assay type: cell-based; settings: BHI agar, 35°-37° C., 20-24 hours
[6] = system: Lactobacillus Casei ATCC 7469; experiment: antimicrobial spectrum, agar dilution MIC; settings: BHI agar, 35°-37° C., 20-24 hours
[7] = system: Pseudomonas aeruginosa 5007; experiment: antimicrobial spectrum, agar dilution MIC; settings: BHI agar, 35°-37° C., 20-24 hours
[8] = system: Strep. pyogenes M79061-98; experiment: antimicrobial spectrum, agar dilution MIC; assay type: cell-based; settings: BHI agar, 35°-37° C., 20-24 hours

CC[C@H]1OC(=O)[C@H](C)[C@@H](O[C@H]2C[C@@](C)(OC)[C@@H](O)[C@H](C)O2)[C@H](C)[C@@H](O[C@@H]2O[C@H](C)C[C@H](N(C)C)[C@H]2O)[C@](C)(O)C[C@@H](C)C(=O)[C@H](C)[C@@H](O)[C@]1(C)O [Erythromycin A, reference compound]
MIC (Bact. fragilis UC-2 [1]): 1.6 µg/mL (≈ 2.18 µM)

CCC1OC(=O)C(C)C(OC2CC(C)(OC)CC(C)O2)C(C)C(OC2OC(C)CC(N(C)C)C2O)C(C)(O)CC(C)C(=O)C(C)C2OC(=O)OC12C (stereo not drawn) [4"-deoxyerythromycin A 11,12-carbonate]
MIC [2]: 50 µg/mL (≈ 67.2 µM) | MIC (Micrococcus luteus 4698): .1 µg/mL (≈ 0.134 µM) | MIC (Pseudomonas cepacia 2961): 50 µg/mL (≈ 67.2 µM) | half life [3]: substantially longer half life | peak blood level [3]: markedly higher peak blood level | MIC (Bact. fragilis UC-2 [4]): 1.6 µg/mL (≈ 2.15 µM) | MIC (Micrococcus luteus 9341): .02 µg/mL (≈ 0.0269 µM) | MIC (Strep. pyogenes 930): 100 µg/mL (≈ 134 µM) | MIC (E. coli SS): .2 µg/mL (≈ 0.269 µM) | MIC (Bact. fragilis 784): .4 µg/mL (≈ 0.538 µM) | MIC [5]: 100 µg/mL (≈ 134 µM) | MIC [6]: .01 µg/mL (≈ 0.0134 µM) | MIC [7]: 100 µg/mL (≈ 134 µM) | MIC [8]: .12 µg/mL (≈ 0.161 µM)
